According to patent US7579329B2, “P450RAI-2 (P450 cytochrome 26B), encoding nucleic acid molecules and methods and uses thereof” (Cytochroma Inc., priority 1999, dated 2009):

Assays:
CYP26B (P450RAI-2) = target: T1, CYP26B (P450RAI-2) (Homo sapiens, UniProt Q9NR63); assay: [3H]-RA-metabolism inhibition assay using microsomes from Hela-CYP26B (stable) cells; details: 5 μg microsomes, NADPH, 1 hour at 37° C., water-soluble metabolites
T1 sequence (Q9NR63 1-512): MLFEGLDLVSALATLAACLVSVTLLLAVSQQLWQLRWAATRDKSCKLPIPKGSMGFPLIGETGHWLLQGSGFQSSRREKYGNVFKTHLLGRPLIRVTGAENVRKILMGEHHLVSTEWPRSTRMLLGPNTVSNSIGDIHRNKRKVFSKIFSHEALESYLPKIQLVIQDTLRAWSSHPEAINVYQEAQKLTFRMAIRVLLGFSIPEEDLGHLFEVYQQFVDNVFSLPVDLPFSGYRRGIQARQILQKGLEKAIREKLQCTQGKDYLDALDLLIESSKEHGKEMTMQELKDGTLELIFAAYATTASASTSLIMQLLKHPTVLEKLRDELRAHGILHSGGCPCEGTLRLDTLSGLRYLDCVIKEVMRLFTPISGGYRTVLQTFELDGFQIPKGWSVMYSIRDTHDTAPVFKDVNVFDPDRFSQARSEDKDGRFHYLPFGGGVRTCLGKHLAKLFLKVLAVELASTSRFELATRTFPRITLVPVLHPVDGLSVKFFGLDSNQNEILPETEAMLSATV
Method: [^3H]-RA-metabolism inhibition assay was carried outusing microsomes prepared from Hela-CYP26B (stable) cells. […] The reaction was started by adding NADPH for 1 hour at 37° C. and then total reinoids were extracted using Bligh-Dyer procedure and water-soluble metabolites counted. […] Ketoconazol is an inhibitor of CYP26B.

P450RAI-2 transcripts = assay: Induction of P450RAI-2 transcripts in human cell lines (Northern blot, RT-PCR); assay type: cell-based; details: MCF-7 cells, 10^-6 M retinoid, 12 hours, northern blot
From the text: HPK1a-ras (ras-transformed human keratinocyte), COS-1 (African green monkey kidney and V79 cells (Chinese Hamster lung) were maintained in DMEM supplemented with 10% FBS (5% for V79). WTE (human non-small cell lung carcinoma and SW900 (human non-small cell lung carcinoma) cells were maintained in RPMI supplemented with 10% FBS. SK-Luci-6 (human non-small cell lung carcinoma) and SK-MES-1 (human non-small cell lung carcinoma) cells in RPMI with 5% FBS. NB4 (human acute prmyelocytic leukemia-serived) cells were maintained in RPMI supplemented with 10% FBS and gentamicin ([…]) HeLa cells (human cervical carcinoma) were maintained in MEM supplemented with 10% FBS. Previous cell lines were supplemented with penicillin (50 units/ml) streptomycin (50 ug/ml) and fungizone (0.1% final concentration). MCF-7 cells (human breast epithelial adenocarcinoma) were grown in MEM supplemented with 10% FBS, insulin (10 ng/ml), sodium pyruvate (0.5 mM), non-essential amino acids (100 nM), L-glutamine (2 mM), penicillin (5 ug.ml), streptomycin (5 ug/ml), fungizone (200 ng/ml), and gentamicin ([…]). All reagents were supplied by Life Technologies, NY. Cells lines were maintained at 37° C. in an atmosphere of 5% CO2 and 95% air.
Gels were photographed under ultraviolet light and then blotted onto Hybond ECL nitrocellulose membrane (Amersham Pharmacia Biotech, UK) and fixed to the membrane by baking at 80° C. for 2 hours under vacuum. […] Full length P450RAI-1 and P450RAI-2 cDNA were labeled with α-[^32P]dATP using Prime-A-Gene Labeling System (Promega, WI). The blot was washed two times for 15 minutes in 2×SSC, 0.1% SDS at room temperature then for 15 minutes at 60° C. in 0.1×SSC, and 0.1% SDS and exposed at −70° C. for 19 hours to Kodak X-Omat AR film (Eastman Kodak Company, NY).
The regulation of P450RAI-2 expression by various retinoids was checked in three different human cell lines, SKMES, CALU-1 and MCF-7. […] The blot was washed as follows: 2×SSPE & 0.1% SDS two washes of 5 minutes each; 1×SSPE & 0.1% SDS one wash of 15 minutes at 65° C.; 0.1×SSPE & 0.1×SDS one wash of 15 minutes at 65° C.
The blot was washed as follows: 2×SSC & 0.1% SDS two washes of 5 minutes each at room temperature; 1×SSC & 0.1% SDS one wash of 15 minutes at 65° C.; 0.1×SSC & 0.1% SDS three washes of 15 minutes each at 65° C.
The blot was washed as follows: 2×SSPE & 0.1% SDS two washes of 5 minutes each; 1×SSPE & 0.1% SDS one wash of 15 minutes at 65° C.; 0.1×SSPE & 0.1×SDS one wash of 15 minutes at 65° C.
The final primer concentrations were 45 μM for the P450RAI-2 primers and 11.25 μM for the GAPDH-specific primers.

P450RAI-1 = target: T2, P450RAI-1 (Homo sapiens, UniProt O43174); assay: Competitive inhibition of [3H]all-trans-RA metabolism in COS-1 cells transfected with pcDNA3.1-P450RAI-1; assay type: cell-based; parameters: expressed in transfected cells; host or cells: COS-1 (African green monkey kidney), transient; details: COS-1 cells expressing P450RAI-1, 2 nM [3H]all-trans-RA
T2 sequence (O43174 1-497): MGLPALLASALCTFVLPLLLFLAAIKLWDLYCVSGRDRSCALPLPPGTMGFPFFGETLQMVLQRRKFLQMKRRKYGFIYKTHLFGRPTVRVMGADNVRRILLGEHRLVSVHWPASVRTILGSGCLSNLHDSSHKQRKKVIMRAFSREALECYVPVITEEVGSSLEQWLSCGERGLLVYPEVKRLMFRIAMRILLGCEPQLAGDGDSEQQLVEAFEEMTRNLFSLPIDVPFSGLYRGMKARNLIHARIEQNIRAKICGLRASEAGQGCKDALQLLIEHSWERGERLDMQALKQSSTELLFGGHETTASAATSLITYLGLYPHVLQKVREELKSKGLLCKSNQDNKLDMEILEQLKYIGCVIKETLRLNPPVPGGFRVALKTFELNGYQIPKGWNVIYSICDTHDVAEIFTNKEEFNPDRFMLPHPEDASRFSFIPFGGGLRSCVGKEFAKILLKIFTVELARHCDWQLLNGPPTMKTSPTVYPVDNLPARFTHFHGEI
Method: COS-1 cells were transfected with either pcDNA3.1-P450RAI-1 or pcDNA3.1-P450RAI-2 in 6-well tissue culture plates as described above. 48 hours post-transfection cells were harvested, pooled, washed with DMEM medium and replated into duplicate 48-well plates with 5×10^5 cells per well.

P450RAI-2 = target: T3, P450RAI-2 (Homo sapiens, UniProt Q9NR63); assay: Competitive inhibition of [3H]all-trans-RA metabolism in COS-1 cells transfected with pcDNA3.1-P450RAI-2; assay type: cell-based; parameters: The full-length human P450RAI-2 cDNA was cloned into the eukaryotic expression vector pcDNA 3.1; expressed in transfected cells; host or cells: COS-1 (African green monkey kidney), transient; details: COS-1 cells expressing P450RAI-2, 2 nM [3H]all-trans-RA
T3 sequence (Q9NR63 1-512): T1 sequence (Q9NR63 1-512)
From the text: COS-1 cells were transfected with either pcDNA3.1-P450RAI-1 or pcDNA3.1-P450RAI-2 in 6-well tissue culture plates as described above.

## CC1=C(/C=C/C(C)=C/C=C/C(C)=C\C(=O)O)C(C)(C)CCC1 [13-cis-RA, 13-cis retinoic acid]
CYP26B (P450RAI-2)
  Competition of [3H]-RA metabolism in microsomes: did not compete at lower concentrations
P450RAI-2 transcripts
  Induction of P450RAI-2 expression: induced
P450RAI-1
  Effectiveness as competitor of all-trans-RA metabolism: less effective than all-trans-RA
P450RAI-2
  Effectiveness as competitor of all-trans-RA metabolism: less effective than all-trans-RA
